Test results taken from ChEMBL document CHEMBL1157690, “Reliability of bond dissociation enthalpy calculated by the PM6 method and experimental TEAC values in antiradical QSAR of flavonoids” (Bioorg Med Chem, 2010).

Key:
[1] = DPPH radical scavenging activity assessed as trolox equivalent antioxidant capacity; type: functional
[2] = ABTS radical scavenging activity assessed as trolox equivalent antioxidant capacity; type: physicochemical
[3] = Antioxidant activity assessed as ABTS radical scavenging activity; type: functional

Compound | Activity [1] | Activity [2] | Activity [3]
O=c1c(O)c(-c2ccccc2)oc2ccccc12 [FLAVONOL] | 0.484 MU | 0.707 MU | –
Oc1cc(O)c2c(c1)O[C@H](c1ccc(O)c(O)c1)[C@H](O)[C@H]2c1c(O)cc(O)c2c1O[C@H](c1ccc(O)c(O)c1)[C@@H](O)C2 [PROCYANIDIN B1] | 5.94 MU | 6.14 MU | –
O=c1cc(-c2ccc(O)cc2)oc2cc(O[C@@H]3O[C@H](CO)[C@@H](O)[C@H](O)[C@H]3O)cc(O)c12 [APIGETRIN] | 0.05 MU | 0.083 MU | –
O=C(O)[C@H]1O[C@@H](Oc2cc3oc(-c4ccccc4)cc(=O)c3c(O)c2O)[C@H](O)[C@@H](O)[C@@H]1O [BAICALIN] | 1.79 MU | 1.55 MU | –
O=c1c(O)c(-c2ccccc2)oc2cc(O)cc(O)c12 [GALANGIN] | 0.705 MU | 1.12 MU | –
Oc1cc(O)c2c(c1)O[C@H](c1cc(O)c(O)c(O)c1)[C@H](O)C2 [EPIGALLOCATECHIN] | 3.56 MU | 3.71 MU | –
O=C(/C=C/c1ccc(O)c(O)c1)c1ccc(O)cc1O [BUTEIN] | 2.27 MU | 2.42 MU | –
O=c1cc(-c2ccccc2)oc2cc(O)c(O)c(O)c12 [BAICALEIN] | 2.74 MU | 2.56 MU | –
C[C@@H]1O[C@@H](O[C@H]2[C@H](Oc3cc(O)c4c(c3)O[C@H](c3ccc(O)cc3)CC4=O)O[C@H](CO)[C@@H](O)[C@@H]2O)[C@H](O)[C@H](O)[C@H]1O [NARINGIN] | 0.077 MU | 0.098 MU | –
O=c1cc(-c2ccc(O)cc2)oc2c([C@@H]3O[C@H](CO)[C@@H](O)[C@H](O)[C@H]3O)c(O)cc(O)c12 [VITEXIN] | 0.205 MU | 0.216 MU | –
O=c1cc(-c2ccc(O)c(O)c2)oc2cc(O)cc(O)c12 [LUTEOLIN] | 2.24 MU | 2.18 MU | –
O=c1cc(-c2ccc(O)c(O)c2)oc2cc(O[C@@H]3O[C@H](CO)[C@@H](O)[C@H](O)[C@H]3O)cc(O)c12 [GALUTEOLIN] | 1.39 MU | 1.47 MU | –
O=C(CCc1ccc(O)cc1)c1c(O)cc(O)cc1O [PHLORETIN] | 1.24 MU | 1.79 MU | –
O=C(O[C@H]1Cc2c(O)cc(O)cc2O[C@@H]1c1ccc(O)c(O)c1)c1cc(O)c(O)c(O)c1 [CATECHIN GALLATE] | 5.56 MU | 5.25 MU | –
O=c1cc(-c2ccccc2)oc2cc(O)cc(O)c12 [CHRYSIN] | 0.053 MU | 0.081 MU | –
O=c1c(O)c(-c2ccc(O)c(O)c2)oc2cc(O)cc(O)c12 [QUERCETIN] | 4.6 MU | 4.42 MU | –
O=c1c(-c2ccc(O)cc2)coc2cc(O[C@@H]3O[C@H](CO)[C@@H](O)[C@H](O)[C@H]3O)cc(O)c12 [GENISTIN] | 0.026 MU | 0.077 MU | –
O=c1cc(-c2ccc(O)cc2)oc2cc(O)cc(O)c12 [APIGENIN] | 0.041 MU | 0.086 MU | –
COc1cc2c(=O)c(-c3ccc(O)cc3)coc2cc1O [GLYCITEIN] | 0.02 MU | 0.097 MU | –
O=C(O[C@@H]1Cc2c(O)cc(O)cc2O[C@@H]1c1cc(O)c(O)c(O)c1)c1cc(O)c(O)c(O)c1 [EPIGALOCATECHIN GALLATE] | 6.08 MU | 5.95 MU | –

Compound | Activity [1] | Activity [2] | Activity [3]
O=C1O[C@H]([C@@H](O)CO)C(O)=C1O | – | – | 100 mg/L
O=C(O[C@@H]1Cc2c(O)cc(O)cc2O[C@@H]1c1ccc(O)c(O)c1)c1cc(O)c(O)c(O)c1 [EPICATECHIN GALLATE] | 5.26 MU | 5.29 MU | –
C[C@@H]1O[C@@H](Oc2cc(O)c3c(=O)c(O[C@@H]4O[C@H](CO)[C@@H](O)[C@H](O)[C@H]4O)c(-c4ccc(O)c(O)c4)oc3c2)[C@@H](O)[C@H](O)[C@@H]1O | 1.63 MU | 1.56 MU | –
O=c1c(O)c(-c2cc(O)c(O)c(O)c2)oc2cc(O)cc(O)c12 [MYRICETIN] | 1.38 MU | 1.31 MU | –
O=c1c(-c2ccc(O)cc2)coc2cc(O)ccc12 [DAIDZEIN] | 0.033 MU | 0.101 MU | –
O=c1c(O)c(-c2ccc(O)cc2)oc2cc(O)cc(O)c12 [KAEMPFEROL] | 1.32 MU | 1.59 MU | –
O=C1C[C@@H](c2ccc(O)cc2)Oc2cc(O)cc(O)c21 [NARINGENIN] | 0.136 MU | 0.217 MU | –
O=c1c(O)c(-c2ccc(O)cc2O)oc2cc(O)cc(O)c12 [MORIN] | 2.75 MU | 2.68 MU | –
C[C@@H]1O[C@@H](OC[C@H]2O[C@@H](Oc3c(-c4ccc(O)c(O)c4)oc4cc(O)cc(O)c4c3=O)[C@H](O)[C@@H](O)[C@@H]2O)[C@H](O)[C@H](O)[C@H]1O [RUTIN] | 2.33 MU | 2.02 MU | –
O=c1c(-c2ccc(O)cc2)coc2cc(O)cc(O)c12 [GENISTEIN] | 0.095 MU | 0.123 MU | –
COc1ccc([C@@H]2CC(=O)c3c(O)cc(O[C@@H]4O[C@H](CO[C@@H]5O[C@@H](C)[C@H](O)[C@@H](O)[C@H]5O)[C@@H](O)[C@H](O)[C@H]4O)cc3O2)cc1O [HESPERIDIN] | 0.075 MU | 0.104 MU | –
Oc1cc(O)c2c(c1)OC(c1ccc(O)c(O)c1)C(O)C2 (stereo not given) | 2.95 MU | – | –
Oc1cc(O)c2c(c1)O[C@H](c1ccc(O)c(O)c1)[C@H](O)[C@H]2c1c(O)cc(O)c2c1O[C@H](c1ccc(O)c(O)c1)[C@H](O)[C@H]2c1c(O)cc(O)c2c1O[C@H](c1ccc(O)c(O)c1)[C@H](O)C2 [PROCYANIDIN C1] | 8.79 MU | 8.29 MU | –
O=c1c(O[C@@H]2O[C@H](CO)[C@@H](O)[C@H](O)[C@H]2O)c(-c2ccc(O)c(O)c2)oc2cc(O)cc(O)c12 [ISOQUERCETIN] | 2.16 MU | 2.39 MU | –
C[C@@H]1O[C@@H](Oc2c(-c3ccc(O)c(O)c3)oc3cc(O)cc(O)c3c2=O)[C@H](O)[C@H](O)[C@H]1O [QUERCITRIN] | 2.57 MU | 2.18 MU | –
Oc1cc(O)c2c(c1)O[C@H](c1ccc(O)c(O)c1)[C@@H](O)C2 [CATECHIN] | – | 3.04 MU | –
Oc1cc(O)c2c(c1)O[C@H](c1ccc(O)c(O)c1)[C@H](O)C2 [(-)-EPICATECHIN] | 3.18 MU | 3.08 MU | –
O=c1c(-c2ccc(O)cc2)coc2cc(O[C@@H]3O[C@H](CO)[C@@H](O)[C@H](O)[C@H]3O)ccc12 [DAIDZIN] | 0.035 MU | 0.072 MU | –
COc1ccc([C@@H]2CC(=O)c3c(O)cc(O)cc3O2)cc1O [HESPERETIN] | 0.268 MU | 0.403 MU | –
